In data set [1] the test system is mesenchymal stem cells (MSCs). The data set is described as follows: MSC viability, trypan blue exclusion. It counts as cell-based, human. Conditions: 250 μM, 48 hours incubation. As to the method: Cytocompatibility. The cytocompatibility of prodrugs generated from small modification of known drugs was investigated. […] To test the cyto compatibility of prodrug-based amphiphiles and bolaamphiphiles, and their effect on cell characteristics such as viability, proliferation, adhesion and cell phenotype, a series of experiments was performed with mesenchymal stem cells (MSCs). To gain more insight into the effect of modification, unmodified drug Apn was used as a control. The viability of control cells and cells treated with Apn, Apn-7-COOH and Apn-8-Apn was examined with trypan blue assay. Use of Mesenchymal stem cells is appropriate given that these systems may be used for localized release likely into connective tissues.
Mesenchymal Stem Cell Culture. Primary human mesenchymal stem cells were maintained in expansion media that consisted of 15% Fetal Bovine Serum (selected for its ability to expand MSCs), 1% (v/v) L-Glutamine, 1% (v/v) Penn-Strep, and α-MEM. All experiments were performed using MSCs at passage number 4-6.
Viability, Adhesion and Proliferation Characteristics. The viability of the cells was examined using trypan blue exclusion. […] The media was then aspirated and the cells were detached with 200 μL of cell dissociated solution (similar quantities of floating cells were observed between the groups, typically 5-10 per well). 300 μL of media was added and the total 500 μL of the cell dispersion was collected in an eppendorf tubes. From this 10 μL of cell dispersion was diluted to 1:1 with 4% trypan blue solution and cells were counted in a hemocytometer to determine the number viable (non-blue) and nonviable (blue) cells. A control for this experiment included cells treated with only phosphate buffer saline (PBS) without an amphiphile. Cell adhesion was quantified by measuring the number of adherent cells on tissue culture surfaces in 96 well plates after incubating with amphiphiles for 12 hours. For proliferation studies, 5000 cells were added to each well of a 96 well plate in 200 μL of MSC cell expansion media, and appropriate amphiphiles were then added and incubated at 37° C. and 5% CO2. Proliferation was quantified by manually tabulating the number of cells within the flask at multiple time points (1, 2, 3, 4, 6 and 8 days) with light microscopy at 10×.

Data set [2] in a line: Gelation studies with Apn-based prodrug gelators in water and organic solvents. It counts as physicochemical. Also noted: key to Gelation ability: G = gel; P = precipitate; S = soluble; I = insoluble. An excerpt:
Gelation Studies with Prodrug-Based Gelators. Gelation abilities of Apn based amphiphilic prodrugs have been investigated thoroughly in a wide range of solvents. For detailed gelation results, see Table 1, below). Typically, the required amount of gelator was placed in a glass vial and with an appropriate solvent. […] The resulting solution was slowly cooled to room temperature and gelation was visually observed. […] Despite of prolonged heating Apn-11-CH3 was not soluble in water. […] In addition, Apn-7-COOH is soluble in basic solutions (pH is more than 8).
All gels were opaque in nature and stable for several weeks.
Preparation of Gels. Typically, gelator (0.1-5 mg) and required solvent (0.1-1 mL) were placed into a 2 mL scintillation vial, which was then sealed with a screw cap. The vial was heated with shaking until the solid was completely dissolved.

In data set [3] the test system is mesenchymal stem cells (MSCs). Put plainly: MSC adipogenic differentiation, Oil Red O staining. It counts as cell-based, human. The settings on record: 250 μM, 23 days of induction. The protocol: (§1) Unlike typical fibroblast cell lines used for toxicity screening, cultured mesenchymal stem cells are highly sensitive to the presence of soluble factors and can often loose their capacity for multi-lineage differentiation or differentiate into non-desired lineages depending on the culture conditions. To examine the impact of the acetaminophen amphiphilic prodrugs on multi-lineage differentiation of MSCs, cells were treated with adipogenic and osteogenic induction media in presence of amphiphiles followed by respective colorimetric histological staining.
Adipogenic Differentiation. MSCs were seeded in the wells of 24 well plates, and were culture in MSC expansion media until they reach 90% confluence (note: in control samples there was no amphiphile present, whereas in experimental samples 250 μM of Apn-based amphiphile was present). Adipogenic differentiation was induced by culturing the cells for 23 days in adipogenic induction media (from Lonza—MSCs Adipogenic Single Quote kit containing h-Insulin (recombinant), L-Glutamine, Dexamethasone, Indomethacin, IBMX (3-isobuty-1-methyl-xanthine), Pen/Strep) and adipogenic maintenance media (from Lonza—MSCs Adipogenic Single Quote kit containing h-Insulin (recombinant), L-Glutamine, Pen/Strep). […] Adipogenesis was evaluated by Oil Red O staining. Following aspiration of the media, cells were washed once with PBS, and fixed in PBS with 3.7% formaldehyde for 30 min at room temperature. Following fixation cells were rinsed with distilled water for a few minutes, and incubated with isopropanol containing an Oil Red O working solution (prepared by diluting 30 mL of 0.5% isopropanol/Oil Red O solution with 20 mL of distilled water). After 45 minutes culture well were rinsed twice with distilled water and 1 mL of hematoxylin was added to each well for 1 minute followed by aspiration and washing with distilled water. The wells were viewed using an inverted phase contrast microscope.

Data set [4] has as its system mesenchymal stem cells (MSCs). Put plainly: MSC osteogenic differentiation, alkaline phosphatase staining. It counts as cell-based, human. Conditions: 250 μM, 23 days. The protocol: as §1
Osteogenic Differentiation. MSCs were seeded in the wells of 24 well plates, and were culture in MSC expansion media until they reach 90% confluence (note: in control samples there was no amphiphile present, whereas in experimental samples 250 μM of Apn-based amphiphile was present). Osteogenic differentiation was induced by culturing the cells for 23 days in osteogenic induction media (from Lonza—MSCs Osteogenic Single Quote kit) containing dexamethasone, β-glycerophosphate, L-ascorbic acid-2-phosphate, and α-MEM. The media in both groups was changed every 3 days (note: each time while changing the media, 250 μM of Apn-based amphiphiles were added to maintain constant concentration). Osteogenesis was evaluated by cell membrane associated alkaline phosphatase activity. Alkaline phosphatase activity was examined after 23 days by carefully aspirating the media and washing the cells with PBS. The cells were fixed with 3.7% formaldehyde solution for 15 min at room temperature followed by rinsing with distilled water. 0.06% Red Violet LB salt solution in Tris HCl was added with distilled water containing DMF and Naphthol AS MX-PO4. The plates were incubated for 45 minutes at room temperature and then the wells were rinsed 3 times with distilled water and imaged under with inverted phase contrast microscope.

For data set [5] the following is noted: DiD-encapsulated fibers, synovial fluid, 37° C.
Description: In vitro. […] Fibers were incubated with synovial fluid at 37° C. that was extracted from human arthritic joints (inflamed).
Data set [6] relates to arthritis bearing mouse joints (ankles and knees). Conditions: direct injection into joints, sectioned after 8 days, fluorescence microscopy.
Source text: In vivo: DiD encapsulated nanofiber gels (salicin-deconate nanofibers, prepared as above), were directly injected into the arthritis bearing mouse joints (ankles and knees) to examine the retention of nanofibers within the joints. After 8 days, ankles and knees were sectioned and imaged under fluorescence microscopy to examine the presence of nanofibers.
In vivo: DiD encapsulated nanofiber gels were directly injected into the arthritis bearing mouse joints (ankles and knees) to examine the retention of nanofibers within the joints. After 8 days, ankles and knees were sectioned and imaged under fluorescence microscopy to examine the presence of nanofibers.
Data set [7] can be described thus: Dye-encapsulated nanofibers in absence of synovial fluid (PBS). In kind it is physicochemical. Conditions: DiD-encapsulated fibers in PBS. From the text: In vitro. […] Fibers were isolated by repetitive centrifugation and washing steps.
For data set [8] the following is noted: cited from earlier work.
Data set [9] in a line: Gelation ability of polyol amphiphiles in water and organic solvents. It counts as physicochemical. Also noted: key: G = stable gel at room temperature; P = precipitate; Sol = soluble. An excerpt:
(§2) Examples of suitable solvents include water, salt water (such as a NaCl solution), different […] such as TRISZMA buffers, and alkaline and acidic solutions. In addition to water-based solutions, the compounds can gel various aromatic and non-aromatic organic solvents, such as benzene, toluene, hexane, and acetonitrile. All the gels obtained in Table 7 were thermally reversible. Above their gelation temperature, the gels dissolved in solvent, but could be returned to their original gel state upon cooling.

Experiment in data set [10]: as above
In kind it is physicochemical. Also noted: key: G = gel; P = precipitate; S = soluble; I = insoluble. Conditions: solvent CHCl3.
Source text: as §2

The values that follow come from US11458153B2, “Drug delivery composition comprising a self-assembled gelator” (The Brigham and Women's Hospital, Inc., priority 2008, dated 2022).

Entries after “also recorded” stand apart in the source; their conditions may differ.

Consider `CC(=O)Nc1ccc(OC(=O)CCCCCCC(=O)Oc2ccc(NC(C)=O)cc2)cc1` [Apn-8-Apn], for which the viable cells in data set [1] is on record as 82%. For the same compound, the Gelation ability result is listed as “S” in data set [2] (solvent chloroform); “S” in data set [2] (solvent ethanol); “I” in data set [2] (solvent ethyl acetate); “S” in data set [2] (solvent isopropanol); “S” in data set [2] (solvent methanol); “S” in [2] (solvent t-butanol). In addition, the Gelation ability entry in data set [2] (solvent water) is recorded as “G”. Moreover, the minimum gelation concentration in data set [2] (solvent water) is on record as 1.1 wt/v %. For the same compound, the “gelation in water (in words)” value in data set [2] (water / aqueous solutions) is given as “formed stable hydrogels”. Besides, the “adipogenic differentiation, Oil Red O (ORO) staining” value in [3] is listed as “robust capacity; also recorded: equally stained for ORO”. In addition, the “osteogenic differentiation, alkaline phosphatase (ALP) staining” value in [4] was “robust capacity; also recorded: equally stained for ALP”.
For `CCCCCCCCCC(=O)OC[C@H]1O[C@@H](Oc2ccccc2CO)[C@H](O)[C@@H](O)[C@@H]1O` [Salicin-deconate], the “period of slow degradation of fibers by enzymes” value in data set [5] came out at 15 days. In data set [6], the “presence of nanofibers in joints” value was “localized within the joints”. Moreover, in [7], the “stability of nanofibers in absence of synovial fluid” value is recorded as “stable (in PBS) for months”.
On to `COc1cc(C=CC(=O)CC(=O)C=Cc2ccc(O)c(OC)c2)ccc1O` [curcumin, 1,7-bis(4-hydroxy-3methoxyphenyl)-1,6-heptadiene-3,5-dione], for which the “solubility of curcumin in water” value in data set [8] was 0.03 µM.
Turning to `CCCCCCCCCCCC(=O)NC(CO)(CO)CO` [polyol-12], the Gelation ability entry in data set [9] (solvent 1,4-dioxane) is given as “Sol”; in [9] (solvent CCl4), “G”; in [9] (solvent CH3CN) it was “G”; in data set [9] (solvent DMSO) it was “Sol”; in [9] (solvent NaCl (40 mM)), “G”; in data set [9] (solvent TRIS (50 mM)) it was “G”. Moreover, the Gelation ability result in [9] (solvent acetone) is “Sol”; in data set [9] (solvent acidic (pH < 3)) it was “G”; in data set [9] (solvent basic (pH > 12)), “G”; in data set [9] (solvent benzene) it was “G”; in data set [9] (solvent cyclohexane), “G”; in [9] (solvent toluene), “G”. Further, the Gelation ability result is on record as “G” in data set [9] (solvent water) and “P” in data set [10].
